In the experiment the target is CazM (Chaetomium globosum, UniProt A0A0K0MCJ4). The experiment is described as follows: HPLC / LC-MS product analysis. The format is biochemical. The note with it: 2 mM 11-SNAC, malonyl-CoA, SAM; pH 7.4, room temperature, 8 h; reductive release.

The structures appear in SMILES notation.

Chain of CazM (A0A0K0MCJ4 whole entry): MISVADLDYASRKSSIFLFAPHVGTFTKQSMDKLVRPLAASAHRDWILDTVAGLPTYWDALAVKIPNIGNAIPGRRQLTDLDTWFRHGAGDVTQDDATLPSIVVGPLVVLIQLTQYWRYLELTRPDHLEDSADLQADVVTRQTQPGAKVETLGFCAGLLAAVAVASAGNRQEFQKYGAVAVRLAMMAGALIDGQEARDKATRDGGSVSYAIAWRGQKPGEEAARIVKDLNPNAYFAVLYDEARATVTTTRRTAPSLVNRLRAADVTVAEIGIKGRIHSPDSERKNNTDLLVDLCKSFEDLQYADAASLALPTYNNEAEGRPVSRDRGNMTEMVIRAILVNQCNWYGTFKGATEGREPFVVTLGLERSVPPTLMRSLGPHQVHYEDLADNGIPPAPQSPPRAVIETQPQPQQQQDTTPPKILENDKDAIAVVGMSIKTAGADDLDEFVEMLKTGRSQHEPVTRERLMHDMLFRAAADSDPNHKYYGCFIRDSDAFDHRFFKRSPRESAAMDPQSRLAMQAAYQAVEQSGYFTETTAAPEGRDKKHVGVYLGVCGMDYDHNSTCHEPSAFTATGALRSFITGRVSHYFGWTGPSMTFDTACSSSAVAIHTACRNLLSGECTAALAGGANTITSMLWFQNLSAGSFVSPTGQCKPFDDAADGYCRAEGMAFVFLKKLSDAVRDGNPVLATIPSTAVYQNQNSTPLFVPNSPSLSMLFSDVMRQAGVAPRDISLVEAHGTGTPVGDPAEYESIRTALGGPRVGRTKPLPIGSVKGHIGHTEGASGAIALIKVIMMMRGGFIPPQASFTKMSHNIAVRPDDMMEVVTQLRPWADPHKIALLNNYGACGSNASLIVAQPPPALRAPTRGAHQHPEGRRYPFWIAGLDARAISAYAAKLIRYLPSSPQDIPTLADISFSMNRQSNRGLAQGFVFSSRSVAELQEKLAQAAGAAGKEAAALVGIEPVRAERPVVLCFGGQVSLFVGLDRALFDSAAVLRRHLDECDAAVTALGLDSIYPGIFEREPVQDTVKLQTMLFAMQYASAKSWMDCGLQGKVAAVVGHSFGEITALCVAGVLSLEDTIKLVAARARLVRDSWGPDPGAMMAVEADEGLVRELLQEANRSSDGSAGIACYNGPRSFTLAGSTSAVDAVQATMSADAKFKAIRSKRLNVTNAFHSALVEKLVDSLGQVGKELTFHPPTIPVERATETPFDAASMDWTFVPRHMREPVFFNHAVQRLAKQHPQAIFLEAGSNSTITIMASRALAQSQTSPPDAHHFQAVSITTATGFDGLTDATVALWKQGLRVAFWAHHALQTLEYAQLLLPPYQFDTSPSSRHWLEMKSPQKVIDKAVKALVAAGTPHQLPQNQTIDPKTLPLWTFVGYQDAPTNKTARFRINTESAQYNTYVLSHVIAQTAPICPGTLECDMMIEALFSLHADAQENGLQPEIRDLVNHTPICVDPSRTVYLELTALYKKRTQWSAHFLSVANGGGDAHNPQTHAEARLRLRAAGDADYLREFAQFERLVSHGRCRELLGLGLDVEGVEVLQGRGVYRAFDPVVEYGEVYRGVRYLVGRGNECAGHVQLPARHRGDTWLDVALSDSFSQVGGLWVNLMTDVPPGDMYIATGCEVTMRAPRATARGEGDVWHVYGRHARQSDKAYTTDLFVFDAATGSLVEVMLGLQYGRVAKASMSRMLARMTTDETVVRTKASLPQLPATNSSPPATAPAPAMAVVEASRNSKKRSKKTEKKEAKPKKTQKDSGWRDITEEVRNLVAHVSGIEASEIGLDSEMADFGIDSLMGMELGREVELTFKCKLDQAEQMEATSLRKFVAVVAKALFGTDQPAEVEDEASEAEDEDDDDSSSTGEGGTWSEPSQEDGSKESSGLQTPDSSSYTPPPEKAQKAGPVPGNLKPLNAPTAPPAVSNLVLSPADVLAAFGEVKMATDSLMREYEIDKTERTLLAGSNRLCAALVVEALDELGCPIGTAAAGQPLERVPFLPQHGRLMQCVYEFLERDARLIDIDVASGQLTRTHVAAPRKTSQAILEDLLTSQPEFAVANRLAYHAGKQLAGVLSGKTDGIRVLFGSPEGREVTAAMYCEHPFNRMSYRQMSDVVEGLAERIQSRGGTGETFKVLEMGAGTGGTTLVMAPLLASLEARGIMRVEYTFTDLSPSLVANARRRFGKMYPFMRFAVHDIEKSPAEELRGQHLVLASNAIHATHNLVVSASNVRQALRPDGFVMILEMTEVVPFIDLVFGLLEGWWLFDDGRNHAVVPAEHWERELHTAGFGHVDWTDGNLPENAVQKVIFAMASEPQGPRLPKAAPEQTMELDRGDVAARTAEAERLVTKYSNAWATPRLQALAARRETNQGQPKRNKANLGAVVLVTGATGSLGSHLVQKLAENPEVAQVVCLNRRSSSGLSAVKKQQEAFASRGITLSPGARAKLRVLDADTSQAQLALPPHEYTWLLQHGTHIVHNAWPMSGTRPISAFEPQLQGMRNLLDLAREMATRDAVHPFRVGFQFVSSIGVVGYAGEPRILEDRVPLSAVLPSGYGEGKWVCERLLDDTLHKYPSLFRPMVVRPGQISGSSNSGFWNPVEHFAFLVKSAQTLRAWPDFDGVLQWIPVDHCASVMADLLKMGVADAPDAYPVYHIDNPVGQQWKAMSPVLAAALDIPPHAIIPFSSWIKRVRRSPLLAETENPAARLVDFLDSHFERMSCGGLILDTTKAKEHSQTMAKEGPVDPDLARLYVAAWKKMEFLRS

As for `NC(=O)C1=CN([C@@H]2O[C@H](COP(=O)(O)OP(=O)(O)OC[C@H]3O[C@@H](n4cnc5c(N)ncnc54)[C@H](OP(=O)(O)O)[C@@H]3O)[C@@H](O)[C@H]2O)C=CC1` [NADPH], the “HPLC / LC-MS product analysis” value is given as “CazM requires NADPH for the reductive offloading of its polyketide product”.
